This is an account of results in patent publication US20250011351A1, “[…] O-ACETYLPSILOCIN, SALTS AND SOLID STATE FORMS THEREOF” (Terran Biosciences Inc., priority 2021, published 2025).

“Also recorded” adds a separate entry of the source.

Data set [1] can be described thus: Dynamic vapor sorption (DVS) analysis with XRPD of the post-DVS specimen. The data set is classed as physicochemical. The note with it: for hygroscopicity (in words): DVS at 25° C., RH range given with the value; for hydrate formation: hysteresis of the DVS curve; for solid form of the post-DVS specimen: XRPD after the DVS experiment (5 to 95% RH and back); for overall water uptake: range between 5-95% RH. On the procedure: (§1) DVS analysis was carried out using a TA Instruments Q5000 Dynamic Vapor Sorption analyzer. The instrument was calibrated with standard weights and a sodium bromide standard for humidity. Approximately 10-25 mg of sample was loaded into a metal-coated quartz pan for analysis. The sample was analyzed at 25° C. with a maximum equilibration time of one hour in 10% relative humidity (RH) steps from 5 to 95% RH (adsorption cycle) and from 95 to 5% RH (desorption cycle). The movement from one step to the next occurred either after satisfying the equilibrium criterion of 0.01% weight change or, if the equilibrium criterion was not met, after one hour. The percent weight change values were calculated using Microsoft Excel®.
as §1, with “Dynamic Vapor Sorption (DVS)” for “DVS”, “is” for “was”, “is” for “were”, “Excel.” for “Excel®.”

For a further data set, the target named is T1, 5-HT2A receptors (Mus musculus, UniProt P35363).
T1 construct: from tissue; host or cells: whole living C57BL/6J mice (in vivo behavioural assay)
Put plainly: Psilocybin-induced head-twitch response in mice, antagonist given i.v. 7 min after psilocybin. The note with it: for effect on psilocybin-induced head-twitch response: cumulative head twitches until 40 min, groups of 3 mice; for effect on psilocybin-induced head twitch, summary of Examples 13-21: antagonist administered after psilocybin, compared to vehicle-treated mice, dose not restated; for Result (suppression of psilocybin-induced head twitch): psilocybin 2 mg/kg i.p., 5HT2A antagonist i.v. at T=7 min, head twitches scored to 40 min. It is filed as in vivo, C57BL/6J mice.
Description: The head-shake response is elicited by a wide variety of known hallucinogens such as LSD, psilocybin, psilocin, N,N-dimethyltryptamine (DMT), and mescaline as well as serotonin-releasing agents and direct 5-HT2 agonists. […] Later studies have confirmed 5-HT2A receptors are the primary, direct mediators of the response and that the headshake response in rats is essentially the same as head-twitches in mice, at least in regards to similarity in appearance and 5-HT2A receptor dependence.
Male C57BL/6J mice (approximately 25 g) were group housed. Animals were maintained under a 12 h light/dark cycle, at 23° C. with humidity controlled.
(§2) At T=−60 min, C57BL/6J mice were individually housed into transparent observation cages with bedding removed and left to habituate. At T=−3 min, mice were placed into heated cages at 40° C. At T=0 h, groups of 3 mice were dosed intraperitoneally with psilocybin (2 mg/kg). Following dosing, mice were replaced into the heated cages and head-twitch responses continuously scored for 7 min. After 7 min, mice were intravenously dosed via the lateral tail vein with either vehicle 1 (saline) or volinanserin 1 mg/kg in 5 mL/kg dosing volumes. Mice were replaced into the observation cages and head twitch behavior were monitored until 40 min after agonist dosing. Cumulative head-twitches were measured every 2 minutes until 40 minutes after agonist dosing.
as §2, with “min. […]” for “min. After 7 min, mice were intravenously dosed via the lateral tail vein with either vehicle 1 (saline) or volinanserin 1 mg/kg in 5 mL/kg dosing volumes.”, “behavior was” for “behavior were”, “Cumulative head-twitch behavior was” for “Cumulative head-twitches were”
as §2, with “min. […]” for “min. After 7 min, mice were intravenously dosed via the lateral tail vein with either vehicle 1 (saline) or volinanserin 1 mg/kg in 5 mL/kg dosing volumes.”, “behavior was” for “behavior were”, “Cumulative head-twitch behavior was” for “Cumulative head-twitches were”
as §2, with “min. […]” for “min. After 7 min, mice were intravenously dosed via the lateral tail vein with either vehicle 1 (saline) or volinanserin 1 mg/kg in 5 mL/kg dosing volumes.”, “behavior was” for “behavior were”, “Cumulative head-twitch behavior was” for “Cumulative head-twitches were”
as §2, with “min. […]” for “min. After 7 min, mice were intravenously dosed via the lateral tail vein with either vehicle 1 (saline) or volinanserin 1 mg/kg in 5 mL/kg dosing volumes.”, “behavior was” for “behavior were”, “Cumulative head-twitch behavior was” for “Cumulative head-twitches were”
At T=−60 min, C57BL/6J mice were individually housed into transparent observation cages with bedding removed and left to habituate.

Data set [2] in a line: Estimated solubility by adding solvent in aliquots to weighed solid, dissolution judged by visual inspection. The note with it: for Solubility / Estimated Solubilities: room temperature.
The mark [3] stands for this setting: antagonist 1 mg/kg i.v. 7 min after psilocybin 2 mg/kg i.p.

T1 sequence (P35363 whole entry): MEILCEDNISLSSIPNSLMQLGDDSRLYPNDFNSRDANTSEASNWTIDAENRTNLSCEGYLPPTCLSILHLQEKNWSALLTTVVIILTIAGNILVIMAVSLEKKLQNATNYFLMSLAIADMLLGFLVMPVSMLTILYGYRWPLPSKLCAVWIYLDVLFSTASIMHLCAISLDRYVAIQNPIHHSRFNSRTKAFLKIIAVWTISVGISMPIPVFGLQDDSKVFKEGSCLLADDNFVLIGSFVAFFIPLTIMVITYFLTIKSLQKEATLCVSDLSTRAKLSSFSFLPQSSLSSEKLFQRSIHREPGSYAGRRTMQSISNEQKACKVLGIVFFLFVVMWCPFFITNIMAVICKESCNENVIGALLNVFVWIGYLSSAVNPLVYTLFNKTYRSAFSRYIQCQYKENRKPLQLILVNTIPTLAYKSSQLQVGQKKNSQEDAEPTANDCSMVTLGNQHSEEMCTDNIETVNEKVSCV

On to `CC(=O)Oc1cccc2[nH]cc(CCN(C)C)c12.O=C(O)C[C@H](O)C(=O)O` [L-malate salt, Form B, O-Acetyl Psilocin Malate], for which, in data set [1], the “hygroscopicity (in words)” value is on record as “non-hygroscopic in the range between 5-85% RH; also recorded: hygroscopic above 850% RH” and the “solid form of the post-DVS specimen” value is “consistent with Form B”. Further, in data set [1] (DVS, above 85% RH), the Water uptake entry is given as “approx. 4.500%” and the hydrate formation entry is given as “no hydrate formation occurred”. The hydrate formation entry in data set [1] (DVS, above 85% RH, listed as Malate B) is reported as “possible hydrate formation”.

For `CN(C)CCc1c[nH]c2cccc(OP(=O)(O)O)c12` [psilocybin], in data set [1], the “hygroscopicity (in words)” value is “hygroscopic between 75-95% RH; also recorded: Hygroscopic above 75% RH:” and the “solid form of the post-DVS specimen” value is “converted to a hydrate Form B; also recorded: a hydrated form of psilocybin resulted from water sorption between 75-95% RH; also recorded: Crystalline Form B (hydrate)”.

In the case of `CC(=O)Oc1cccc2[nH]cc(CCN(C)C)c12.O=C(O)CC(O)C(=O)O` [Malate Form B], the Water uptake in data set [1] (5-85% RH) was 0.8%, 5-85% RH;; in data set [1] (above 85% RH), 4.5% above 85%. Also, the “Water uptake (25-65% RH) %” value in data set [1] is on record as about 0.3%.

In the case of `O=c1[nH]c2ccccc2n1CCN1CCN(c2cccc(C(F)(F)F)c2)CC1` [flibanserin], the “effect on psilocybin-induced head-twitch response” value at 5-HT2A receptors (setting [3]) and at 5-HT2A receptors (antagonist 4 mg/kg i.v. 7 min after psilocybin 2 mg/kg i.p.) was “partially suppressed” in each case. In addition, the “effect on psilocybin-induced head twitch, summary of Examples 13-21” value (“effect on psilocybin-induced head twitch” for short) at 5-HT2A receptors is reported as “partial suppression”. In addition, the “Result (suppression of psilocybin-induced head twitch)” value (shortened to “Result”) on 5-HT2A receptors is “Partial suppression of head twitch”.

On to `Cc1nc2sccn2c(=O)c1CCN1CCC(=C(c2ccc(F)cc2)c2ccc(F)cc2)CC1` [ritanserin], for which the “effect on psilocybin-induced head-twitch response” value on 5-HT2A receptors (setting [3]) is “completely suppressed”. Also, on 5-HT2A receptors, the “effect on psilocybin-induced head twitch” value is “full ending” and the “Result” value is “Full suppression of head twitch”.

Turning to `CC(=O)Oc1cccc2[nH]cc(CCN(C)C)c12.O=C(O)C(O)C(O)C(=O)O` [Tartrate Form A], the “Water uptake (25-65% RH) %” value in data set [1] is listed as 0.1%. Further, the Water uptake in data set [1] (85-95% RH) is 5-6% 85-95% RH. Moreover, the “RH at which likely hydrate formation is shown” value in data set [1] (listed as 'Other forms') is “at 95% RH”.

For the compound `CC(=O)Oc1cccc2[nH]cc(CCN(C)C)c12.CS(=O)(=O)O` [mesylate salt, Form A, O-Acetyl Psilocin Mesylate], in data set [1], the “hygroscopicity (in words)” value is given as “non-hygroscopic in the range from 5-55% RH; also recorded: highly hygroscopic material above 55% RH” and the “solid form of the post-DVS specimen” value is listed as “a liquid”. In data set [1] (DVS, above 55% RH), the Water uptake worked out at 40%.

For the compound `CC(=O)Oc1cccc2[nH]cc(CCN(C)C)c12.O=C(O)/C=C\C(=O)O` [maleate salt, Form A, O-acetyl psilocin maleate], in data set [1], the “hygroscopicity (in words)” value was “non-hygroscopic” and the “solid form of the post-DVS specimen” value is listed as “consistent with Form A”. The “hygroscopicity (in words)” value in data set [1] (listed as maleate salt) is “minimal water sorption over the RH range”. For the same compound, the overall water uptake result in data set [1] (DVS) is “approx. 0.8%”.

As for `N#Cc1c[nH]c2c(C(=O)N3CCN(CCc4ccc(F)cc4)CC3)cccc12` [pruvanserin], at 5-HT2A receptors (setting [3]), the “effect on psilocybin-induced head-twitch response” value is “completely suppressed”. For the same compound, at 5-HT2A receptors, the “effect on psilocybin-induced head twitch” value is on record as “full ending” and the “Result” value is on record as “Full suppression of head twitch”.

In the case of `CC(=O)Oc1cccc2[nH]cc(CCN(C)C)c12.O=C(O)/C=C/C(=O)O` [O-acetylpsilocin fumarate Form A, O-acetylpsilocin fumarate], in data set [1], the “hygroscopicity (in words)” value is on record as “non-hygroscopic”. The overall water uptake entry in data set [1] (DVS) is recorded as “approx. 0.1%”. Moreover, the Solubility in data set [2] (1,4-dioxane) is under 1 mg/mL; in data set [2] (2-propanol (2-PrOH)) it was 1 mg/mL; in data set [2] (50:50 MeOH:water), over 33 mg/mL; in data set [2] (50:50 THF:water), over 55 mg/mL; in data set [2] (70:30 ACN:water), over 75 mg/mL; in data set [2] (70:30 acetone:water), over 51 mg/mL. In addition, the Solubility in data set [2] (95:5 1,4-dioxane:water) is on record as 3 mg/mL; in data set [2] (95:5 ACN:water), 12 mg/mL; in data set [2] (95:5 EtOH:water), 9 mg/mL; in data set [2] (95:5 IPA:water) it was 4 mg/mL; in data set [2] (95:5 MeOH:water), over 26 mg/mL; in data set [2] (95:5 THF:water), over 17 mg/mL. Moreover, the Solubility in data set [2] (95:5 acetone:water) is recorded as 10 mg/mL; in data set [2] (acetone) it was under 1 mg/mL; in data set [2] (acetonitrile (ACN)), under 1 mg/mL; in data set [2] (dichloromethane (DCM)), under 1 mg/mL; in data set [2] (ethanol (EtOH)), 2 mg/mL; in data set [2] (ethyl acetate (EtOAc)), under 1 mg/mL. For the same compound, the Solubility was under 1 mg/mL in data set [2] (hexanes); 2 mg/mL in data set [2] (methanol (MeOH)); 1 mg/mL in data set [2] (tetrahydrofuran (THF)); under 1 mg/mL in data set [2] (toluene); 11 mg/mL in data set [2] (water).

For `CC(=O)Oc1cccc2[nH]cc(CCN(C)C)c12.O=C(O)C(O)C(O)C(=O)O` [L-tartrate salt, Form A, O-Acetyl Psilocin Tartrate], in data set [1], the “hygroscopicity (in words)” value is recorded as “non-hygroscopic in the range from 5-85% RH; also recorded: hygroscopic above 85% RH”; the “solid form of the post-DVS specimen” value is “consistent with Form A by XRPD analysis and exhibited additional diffraction peaks”. Moreover, in data set [1] (DVS, above 85% RH), the Water uptake entry is reported as “approx. 6%” and the hydrate formation result was “consistent with hydrate formation”. Further, the hydrate formation entry in data set [1] (DVS, above 85% RH, listed as Tartrate A) was “possible hydrate formation”.

In the case of Maleate, the Water uptake in data set [1] (5-95% RH) is reported as ~0.8, 5-95%. Further, the “Water uptake (25-65% RH) %” value in data set [1] is about 0.3%. Moreover, the “Water solubility” value in data set [2] (water) was over 50 mg/mL.

As for `CC(=O)Oc1cccc2[nH]cc(CCN(C)C)c12.O=C(O)C(O)C(O)C(=O)O` [L-tartrate, Form A], in data set [1] (DVS), the “RH above which hygroscopic (DVS)” value is over 85 % RH and the “RH range in which non-hygroscopic (DVS)” value was 5-85 % RH. Further, the “hydrate formation upon DVS” value in data set [1] (DVS, high RH) is listed as “resulting in hydrate”. Further, the “water uptake, DVS” value in data set [1] (above 85% RH) is recorded as about 6%.

With `CC(=O)Oc1cccc2[nH]cc(CCN(C)C)c12` [O-Acetyl Psilocin Freebase, O-Acetyl Psilocin], the “Estimated Solubilities” value in data set [2] (1,4-dioxane) is listed as over 62; in data set [2] (2-methyltetrahydrofuran 2-Me(THF)), over 50; in data set [2] (2-propanol (2-PrOH)), over 32; in data set [2] (Methyl ethyl ketone (MEK)) it was over 51; in data set [2] (Methyl tert-butyl ether (MTBE)), over 23; in data set [2] (acetone), over 59. Further, the “Estimated Solubilities” value is over 67 in data set [2] (acetonitrile (ACN)); over 62 in data set [2] (ethanol (EtOH)); under 1 in data set [2] (hexanes); over 62 in data set [2] (methanol (MeOH)); over 59 in data set [2] (toluene); under 1 in data set [2] (water).

What is called Solubility is how much of the substance goes into solution per volume.
